From PMC11459966, “Oral pharmacokinetics and efficacy of oral phospholipid remdesivir nucleoside prodrugs against SARS-CoV-2 in mice” (Antimicrobial Agents and Chemotherapy, 2024)
Where two headings read alike, the source gives them in different places. Marks after values point to notes of the source that are not given here.

Experiments:
[1] = tested on: SARS-CoV-2 B.1.351 (Beta variant); format: in vivo, BALB/c mice; conditions: for reduction of lung titers: mouse, in vivo, po, 80 mg/kg; for effect on lung titers at day 4 post-infection / lung titers vs limit of detection at day 4 post-infection / weight loss at 2 dpi compared to vehicle-treated mice / lung histopathology scores at 4 dpi / effect on lung titers at day 2 / effect on lung titers at 4 dpi (significant reduction): prophylaxis; for effect on lung titers at day 4 post-infection: 27 mg/kg or 80 mg/kg once daily PO; for antiviral effects on lung titers at 2 dpi: prophylaxis, 8, 27 or 80 mg/kg once daily PO; for lung titers vs limit of detection at day 4 post-infection: once daily PO, for V2067 even at 8 mg/kg; for weight loss at 2 dpi compared to vehicle-treated mice: V2043 80 mg/kg, V2053 27 and 80 mg/kg, V2067 all doses; for weight loss at 2 dpi compared to vehicle-treated mice / effect on lung titers at 4 dpi (significant reduction): obeldesivir 10 or 30 mg/kg BID; for lung histopathology scores at 4 dpi: GS-5245 30 mg/kg BID, V2053 8 mg/kg, H&E; for effect on lung titers at day 2: EIDD-2801 100 mg/kg BID, GS-5245 10 or 30 mg/kg BID; for effect on lung titers at day 2 / effect on lung titers at 4 dpi (significant reduction): PO; for effect on lung titers at 4 dpi (significant reduction): comparators: EIDD-2801 100 mg/kg BID, remdesivir 25 mg/kg BID
[2] = tested on: SARS-CoV-2 B.1.351 (Beta variant); format: in vivo, BALB/c mice; conditions: for level of infectious SARS-CoV-2 in the lung at 2 dpi compared to vehicle: V2043, V2053, V2067 at 27 or 80 mg/kg; for lung infectious units vs limit of detection at 4 dpi: V2043 and V2067 27 and 80 mg/kg, V2053 80 mg/kg once daily, EIDD-2801 100 mg/kg BID, GS-5245 30 mg/kg BID; for Daily dose required to reach below the limit of detection on day 4 post-infection / Molar daily dose required to reach below the limit of detection on day 4 post-infection / reduction of lung infectious units compared to vehicle: mouse, in vivo; for reduction of lung infectious units compared to vehicle: po, 80 mg/kg; for lung titers reduced to below the limit of detection at 4 dpi: GS-5245 10 mg/kg BID, remdesivir 25 mg/kg BID
[3] = daily dose derived from prophylaxis experiment (Fig. 4)

Row | SMILES | reduction of lung titers [1] [Log10] | effect on lung titers at day 4 post-infection [1] | antiviral effects on lung titers at 2 dpi [1] | lung titers vs limit of detection at day 4 post-infection [1] | weight loss at 2 dpi compared to vehicle-treated mice [1] | level of infectious SARS-CoV-2 in the lung at 2 dpi compared to vehicle [2] | lung infectious units vs limit of detection at 4 dpi [2] | Daily dose required to reach below the limit of detection on day 4 post-infection [2] [mg/kg] | Molar daily dose required to reach below the limit of detection on day 4 post-infection [2] [µmol/kg] | reduction of lung infectious units compared to vehicle [2] [log10] | lung histopathology scores at 4 dpi [1] | Daily dose required to reach below the limit of detection on day 4 post-infection [1, 3] | Fold ∆ vs MPV (molar daily dose) [1, 3] [×] | Fold ∆ vs OBDV (molar daily dose) [1, 3] [×] | Molar daily dose required to reach below the limit of detection on day 4 post-infection [1, 3] [µmol/kg] | Fold ∆ vs MPV (molar daily dose) ([2]; therapeutic model) [×] | Fold ∆ vs OBDV (molar daily dose) ([2]; therapeutic model) [×] | effect on lung titers at day 2 [1] | effect on lung titers at 4 dpi (significant reduction) [1] | lung titers reduced to below the limit of detection at 4 dpi [2]
1 | CCCCCCCCCCCCCCCCCCOC[C@H](COP(=O)(O)OC[C@H]1O[C@@](C#N)(c2ccc3c(N)ncnn23)[C@H](O)[C@@H]1O)OCc1ccccc1 [Compound V2043, 1-O-octadecyl-2-O-benzyl-sn-glyceryl-P-RVn] | 2.29 | significantly reduced lung titers | dose-dependent antiviral effects | below the limit of detection in all animals | lost less weight | significantly reduced | below the limit of detection in all animals | 27 | 34.3 | 3.1 |  |  |  |  |  |  |  |  |  | 
2 | CCCCCCCCC=CCCCCCCCCOCC(COP(=O)(O)OCC1OC(C#N)(c2ccc3c(N)ncnn23)C(O)C1O)OCc1ccc(OC)c(F)c1 (stereo not drawn) [Compound V2053] |  | significantly reduced lung titers | dose-dependent antiviral effects |  | lost less weight | significantly reduced | below the limit of detection in all animals |  |  | 3.0 | small but significant reductions |  |  |  |  |  |  |  |  | 
3 | CCCCCCCCCCCCCCCCCCOCC(COP(=O)(O)OC[C@H]1O[C@@](C#N)(c2ccc3c(N)ncnn23)[C@H](O)[C@@H]1O)OCc1ccc(C#N)cc1 (stereo partly drawn) [Compound V2067] | 1.83 | significantly reduced lung titers | dose-dependent antiviral effects | below the limit of detection in all animals | lost less weight | significantly reduced | below the limit of detection in all animals | 27 | 33.2 | 3.2 |  | 8^a mg/kg | 61.9 | 16.9 | 9.8 | 18.2 | 5.0 |  |  | 
4 | CC(C)C(=O)OC[C@H]1O[C@@H](n2ccc(NO)nc2=O)[C@H](O)[C@@H]1O [EIDD-2801, reference compound] |  |  |  |  |  |  | reduced lung titers to below the limit of detection | 200 | 607 |  |  |  |  |  |  |  |  | significantly reduced lung titers | significantly reduced lung titers | 
5 | CC(C)C(=O)OC[C@H]1O[C@@](C#N)(c2ccc3c(N)ncnn23)[C@H](O)[C@@H]1O [Obeldesivir GS-5245, reference compound] |  |  |  |  | lost less weight |  | reduced lung titers to below the limit of detection | 60 | 166 |  | small but significant reductions |  |  |  |  |  |  | significantly reduced lung titers | did not | did not
6 | CCC(CC)COC(=O)[C@H](C)N[P@](=O)(OC[C@H]1O[C@@](C#N)(c2ccc3c(N)ncnn23)[C@H](O)[C@@H]1O)Oc1ccccc1 [remdesivir] |  |  |  |  |  |  |  |  |  |  |  |  |  |  |  |  |  |  | did not | did not
